Experimental data as given in PubChem BioAssay (NCI).
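Five compound concentrations were applied to cells in 96-well plates for 48 hours; endpoints were derived by simple linear interpolation of the resulting dose-response curve. At the GI50, growth is halved. At the TGI there is no net growth.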

Assays:
Assay in all cases: DTP human tumour cell line panel, 48 h
M14 melanoma = system: M14 melanoma
SN12C renal = system: SN12C renal
SR leukemia = system: SR leukemia
RXF 393 renal = system: RXF 393 renal
HOP-92 NSCLC = system: HOP-92 NSCLC
SF-268 CNS = system: SF-268 CNS
786-0 renal = system: 786-0 renal
HS 578T breast = system: HS 578T breast
SK-MEL-28 melanoma = system: SK-MEL-28 melanoma
U251 CNS = system: U251 CNS
CAKI-1 renal = system: CAKI-1 renal
NCI-H23 lung = system: NCI-H23 lung
IGROV1 ovarian = system: IGROV1 ovarian
A498 renal = system: A498 renal
COLO 205 colon = system: COLO 205 colon
UO-31 renal = system: UO-31 renal
HT29 colon = system: HT29 colon
ACHN renal = system: ACHN renal
DU-145 prostate = system: DU-145 prostate
RPMI-8226 leukemia = system: RPMI-8226 leukemia
EKVX NSCLC = system: EKVX NSCLC
KM12 colon = system: KM12 colon
OVCAR-3 ovarian = system: OVCAR-3 ovarian
HCT-116 colon = system: HCT-116 colon
NCI/ADR-RES ovarian = system: NCI/ADR-RES ovarian
A549 NSCLC = system: A549 NSCLC
SF-295 CNS = system: SF-295 CNS
T-47D breast = system: T-47D breast
MALME-3M melanoma = system: MALME-3M melanoma
HCC-2998 colon = system: HCC-2998 colon
NCI-H460 lung = system: NCI-H460 lung
PC-3 prostate = system: PC-3 prostate
MDA-MB-435 = system: MDA-MB-435
SW-620 colon = system: SW-620 colon
SK-MEL-5 melanoma = system: SK-MEL-5 melanoma
HL-60(TB) leukemia = system: HL-60(TB) leukemia
UACC-62 melanoma = system: UACC-62 melanoma
OVCAR-4 ovarian = system: OVCAR-4 ovarian
MDA-MB-231 breast = system: MDA-MB-231 breast
HOP-62 NSCLC = system: HOP-62 NSCLC
SK-OV-3 ovarian = system: SK-OV-3 ovarian
SF-539 CNS = system: SF-539 CNS
HCT-15 colon = system: HCT-15 colon
NCI-H226 lung = system: NCI-H226 lung
MOLT-4 leukemia = system: MOLT-4 leukemia
LOX IMVI melanoma = system: LOX IMVI melanoma
OVCAR-5 ovarian = system: OVCAR-5 ovarian
SK-MEL-2 melanoma = system: SK-MEL-2 melanoma
OVCAR-8 ovarian = system: OVCAR-8 ovarian
UACC-257 melanoma = system: UACC-257 melanoma
BT-549 breast = system: BT-549 breast
MCF7 breast = system: MCF7 breast
SNB-75 CNS = system: SNB-75 CNS
NCI-H522 lung = system: NCI-H522 lung
CCRF-CEM leukemia = system: CCRF-CEM leukemia
K-562 leukemia = system: K-562 leukemia
SNB-19 CNS = system: SNB-19 CNS

Compound: O=c1c2cccc(F)c2sc2c(N3CCNCC3)nc3ccccc3c12
- GI50 (M14 melanoma): 1.71 µM
- TGI (M14 melanoma): 3.17 µM
- GI50 (SN12C renal): 1.32 µM
- TGI (SN12C renal): 2.72 µM
- GI50 (SR leukemia): 1.08 µM
- TGI (SR leukemia): 3.35 µM
- GI50 (RXF 393 renal): 1.31 µM
- TGI (RXF 393 renal): 2.62 µM
- GI50 (HOP-92 NSCLC): 1.11 µM
- TGI (HOP-92 NSCLC): 2.6 µM
- GI50 (SF-268 CNS): 1.55 µM
- TGI (SF-268 CNS): 3.26 µM
- GI50 (786-0 renal): 1.74 µM
- TGI (786-0 renal): 3.28 µM
- GI50 (HS 578T breast): 1.62 µM
- TGI (HS 578T breast): 3.66 µM
- GI50 (SK-MEL-28 melanoma): 1.88 µM
- TGI (SK-MEL-28 melanoma): 3.35 µM
- GI50 (U251 CNS): 1.39 µM
- TGI (U251 CNS): 2.96 µM
- GI50 (CAKI-1 renal): 1.35 µM
- TGI (CAKI-1 renal): 2.73 µM
- GI50 (NCI-H23 lung): 1.57 µM
- TGI (NCI-H23 lung): 3.1 µM
- GI50 (IGROV1 ovarian): 1.22 µM
- TGI (IGROV1 ovarian): 2.55 µM
- GI50 (A498 renal): 1.92 µM
- TGI (A498 renal): 8.51 µM
- GI50 (COLO 205 colon): 1.43 µM
- TGI (COLO 205 colon): 3.17 µM
- GI50 (UO-31 renal): 0.597 µM
- TGI (UO-31 renal): 2.04 µM
- GI50 (HT29 colon): 1.13 µM
- TGI (HT29 colon): 2.59 µM
- GI50 (ACHN renal): 1.19 µM
- TGI (ACHN renal): 2.43 µM
- GI50 (DU-145 prostate): 1.4 µM
- TGI (DU-145 prostate): 2.76 µM
- GI50 (RPMI-8226 leukemia): 1.69 µM
- TGI (RPMI-8226 leukemia): 3.73 µM
- GI50 (EKVX NSCLC): 1.59 µM
- TGI (EKVX NSCLC): 2.99 µM
- GI50 (KM12 colon): 1.65 µM
- TGI (KM12 colon): 3.17 µM
- GI50 (OVCAR-3 ovarian): 1.59 µM
- TGI (OVCAR-3 ovarian): 3.04 µM
- GI50 (HCT-116 colon): 0.931 µM
- TGI (HCT-116 colon): 2.16 µM
- GI50 (NCI/ADR-RES ovarian): 1.6 µM
- TGI (NCI/ADR-RES ovarian): 3.21 µM
- GI50 (A549 NSCLC): 0.89 µM
- TGI (A549 NSCLC): 2.71 µM
- GI50 (SF-295 CNS): 1.76 µM
- TGI (SF-295 CNS): 3.33 µM
- GI50 (T-47D breast): 1.67 µM
- TGI (T-47D breast): 3.59 µM
- GI50 (MALME-3M melanoma): 1.67 µM
- TGI (MALME-3M melanoma): 3.07 µM
- GI50 (HCC-2998 colon): 1.48 µM
- TGI (HCC-2998 colon): 3.13 µM
- GI50 (NCI-H460 lung): 1.02 µM
- TGI (NCI-H460 lung): 2.34 µM
- GI50 (PC-3 prostate): 1.26 µM
- TGI (PC-3 prostate): 2.7 µM
- GI50 (MDA-MB-435): 1.74 µM
- TGI (MDA-MB-435): 3.2 µM
- GI50 (SW-620 colon): 0.974 µM
- TGI (SW-620 colon): 2.28 µM
- GI50 (SK-MEL-5 melanoma): 1.69 µM
- TGI (SK-MEL-5 melanoma): 3.08 µM
- GI50 (HL-60(TB) leukemia): 1.76 µM
- TGI (HL-60(TB) leukemia): 3.44 µM
- GI50 (UACC-62 melanoma): 1.66 µM
- TGI (UACC-62 melanoma): 3.16 µM
- GI50 (OVCAR-4 ovarian): 1.64 µM
- TGI (OVCAR-4 ovarian): 3.08 µM
- GI50 (MDA-MB-231 breast): 1.61 µM
- TGI (MDA-MB-231 breast): 3.1 µM
- GI50 (HOP-62 NSCLC): 1.38 µM
- TGI (HOP-62 NSCLC): 3.1 µM
- GI50 (SK-OV-3 ovarian): 1.64 µM
- TGI (SK-OV-3 ovarian): 3.41 µM
- GI50 (SF-539 CNS): 1.71 µM
- TGI (SF-539 CNS): 3.11 µM
- GI50 (HCT-15 colon): 1.29 µM
- TGI (HCT-15 colon): 2.71 µM
- GI50 (NCI-H226 lung): 1.65 µM
- TGI (NCI-H226 lung): 3.4 µM
- GI50 (MOLT-4 leukemia): 0.449 µM
- TGI (MOLT-4 leukemia): 1.71 µM
- GI50 (LOX IMVI melanoma): 1.42 µM
- TGI (LOX IMVI melanoma): 2.81 µM
- GI50 (OVCAR-5 ovarian): 1.59 µM
- TGI (OVCAR-5 ovarian): 3.03 µM
- GI50 (SK-MEL-2 melanoma): 1.76 µM
- TGI (SK-MEL-2 melanoma): 3.46 µM
- GI50 (OVCAR-8 ovarian): 1.51 µM
- TGI (OVCAR-8 ovarian): 3.42 µM
- GI50 (UACC-257 melanoma): 1.93 µM
- TGI (UACC-257 melanoma): 3.94 µM
- GI50 (BT-549 breast): 1.58 µM
- TGI (BT-549 breast): 3.06 µM
- GI50 (MCF7 breast): 1.17 µM
- TGI (MCF7 breast): 2.66 µM
- GI50 (SNB-75 CNS): 1.16 µM
- TGI (SNB-75 CNS): 2.41 µM
- GI50 (NCI-H522 lung): 1.45 µM
- TGI (NCI-H522 lung): 3.18 µM
- GI50 (CCRF-CEM leukemia): 1.33 µM
- TGI (CCRF-CEM leukemia): 3.18 µM

Compound: CN1C(=O)C(C(N)=O)C2CC1(C)Oc1ccccc12 (centres undefined)
- TGI (M14 melanoma): > 100 µM
- TGI (SN12C renal): > 100 µM
- TGI (SR leukemia): > 100 µM
- TGI (RXF 393 renal): > 100 µM
- TGI (HOP-92 NSCLC): > 100 µM
- TGI (SF-268 CNS): > 100 µM
- TGI (786-0 renal): > 100 µM
- TGI (HS 578T breast): > 100 µM
- TGI (SK-MEL-28 melanoma): > 100 µM
- TGI (U251 CNS): > 100 µM
- TGI (CAKI-1 renal): > 100 µM
- TGI (NCI-H23 lung): > 100 µM
- TGI (IGROV1 ovarian): > 100 µM
- TGI (A498 renal): > 100 µM
- TGI (COLO 205 colon): > 100 µM
- TGI (HT29 colon): > 100 µM
- TGI (ACHN renal): > 100 µM
- TGI (DU-145 prostate): > 100 µM
- TGI (K-562 leukemia): > 100 µM
- TGI (RPMI-8226 leukemia): > 100 µM
- TGI (EKVX NSCLC): > 100 µM
- TGI (KM12 colon): > 100 µM
- TGI (OVCAR-3 ovarian): > 100 µM
- TGI (HCT-116 colon): > 100 µM
- TGI (NCI/ADR-RES ovarian): > 100 µM
- TGI (A549 NSCLC): > 100 µM
- TGI (T-47D breast): > 100 µM
- TGI (MALME-3M melanoma): > 100 µM
- TGI (HCC-2998 colon): > 100 µM
- TGI (NCI-H460 lung): > 100 µM
- TGI (PC-3 prostate): > 100 µM
- TGI (MDA-MB-435): > 100 µM
- TGI (SW-620 colon): > 100 µM
- TGI (SK-MEL-5 melanoma): > 100 µM
- TGI (HL-60(TB) leukemia): > 100 µM
- TGI (UACC-62 melanoma): > 100 µM
- TGI (OVCAR-4 ovarian): > 100 µM
- TGI (MDA-MB-231 breast): > 100 µM
- TGI (HOP-62 NSCLC): > 100 µM
- TGI (SK-OV-3 ovarian): > 100 µM
- TGI (SNB-19 CNS): > 100 µM
- TGI (HCT-15 colon): > 100 µM
- TGI (NCI-H226 lung): > 100 µM
- TGI (MOLT-4 leukemia): > 100 µM
- TGI (LOX IMVI melanoma): > 100 µM
- TGI (OVCAR-5 ovarian): > 100 µM
- TGI (SK-MEL-2 melanoma): > 100 µM
- TGI (OVCAR-8 ovarian): > 100 µM
- TGI (UACC-257 melanoma): > 100 µM
- TGI (BT-549 breast): > 100 µM
- TGI (MCF7 breast): > 100 µM
- TGI (SNB-75 CNS): > 100 µM
- TGI (NCI-H522 lung): > 100 µM
- TGI (CCRF-CEM leukemia): > 100 µM
